Data taken from PubChem BioAssay AID328 (DTP/NCI, 2004).
Where “and” joins values, the source holds several entries; their conditions need not be identical. Equal values may be shown once. Toxic doses and inconclusive results are not listed.

System: BDF1 mice, P388 leukemia ip, median survival T/C
Experiment: NCI In Vivo Anticancer Drug Screen. Data for tumor model P388 Leukemia (intraperitoneal) in B6D2F1 (BDF1) mice
Conditions: endpoint: median survival time, higher = longer survival
Outline: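 Each value expresses how treatment altered survival: treated-mouse outcome over vehicle-mouse outcome, both groups bearing the transplanted tumour.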

[1] = dose: 100.0 mg/kg/injection, schedule: Q01DX009 (ip), vehicle: saline with Tween-80
[2] = dose: 200.0 mg/kg/injection, schedule: Q01DX009 (ip), vehicle: saline with Tween-80
[3] = dose: 100.0 mg/kg/injection, schedule: Q04DX003 (ip), vehicle: saline with Tween-80
[4] = dose: 200.0 mg/kg/injection, schedule: Q04DX003 (ip), vehicle: saline with Tween-80
[5] = dose: 400.0 mg/kg/injection, schedule: Q04DX003 (ip), vehicle: saline with Tween-80
[6] = dose: 50.0 mg/kg/injection, schedule: Q01DX009 (ip), vehicle: saline with Tween-80
[7] = dose: 6.25 mg/kg/injection, schedule: Q01DX009 (ip), vehicle: saline with Tween-80
[8] = dose: 12.5 mg/kg/injection, schedule: Q01DX009 (ip), vehicle: saline with Tween-80
[9] = dose: 25.0 mg/kg/injection, schedule: Q01DX009 (ip), vehicle: saline with Tween-80
[10] = dose: 25.0 mg/kg/injection, schedule: Q01DX009 (ip), vehicle: Klucel (hydroxypropylcellulose) (HPC)
[11] = dose: 25.0 mg/kg/injection, schedule: Q04DX003 (ip), vehicle: Klucel (hydroxypropylcellulose) (HPC)
[12] = dose: 50.0 mg/kg/injection, schedule: Q01DX009 (ip), vehicle: Klucel (hydroxypropylcellulose) (HPC)
[13] = dose: 50.0 mg/kg/injection, schedule: Q04DX003 (ip), vehicle: Klucel (hydroxypropylcellulose) (HPC)
[14] = dose: 100.0 mg/kg/injection, schedule: Q01DX009 (ip), vehicle: Klucel (hydroxypropylcellulose) (HPC)
[15] = dose: 200.0 mg/kg/injection, schedule: Q04DX003 (ip), vehicle: Klucel (hydroxypropylcellulose) (HPC)
[16] = dose: 100.0 mg/kg/injection, schedule: Q01DX009 (ip), vehicle: saline
[17] = dose: 50.0 mg/kg/injection, schedule: Q01DX009 (ip), vehicle: saline

CC(C)c1cc(C(C)C)n2nc(N)nc2n1
T/C [1]: 100 % of control
T/C [2]: 95 % of control
T/C (dose: 400.0 mg/kg/injection, schedule: Q01DX009 (ip), vehicle: saline with Tween-80): 90 % of control

CC(=O)OCC(=O)[C@@]1(O)CC[C@H]2[C@@H]3C[C@H](C)C4=CC(=O)C=C[C@]4(C)[C@H]3[C@@H](O)C[C@@]21C
T/C [3]: 104 % of control
T/C [4]: 104 % of control
T/C [5]: 100 % of control

Clc1cc(N2CC2)nc(N2CC2)n1
T/C (dose: 0.11 mg/kg/injection, schedule: Q01DX009 (ip), vehicle: saline): 90 % of control
T/C (dose: 0.17 mg/kg/injection, schedule: Q01DX009 (ip), vehicle: saline): 95 % of control
T/C (dose: 0.27 mg/kg/injection, schedule: Q01DX009 (ip), vehicle: saline): 275 % of control
T/C (dose: 0.4 mg/kg/injection, schedule: Q01DX009 (ip), vehicle: saline): 295 % of control
T/C (dose: 0.62 mg/kg/injection, schedule: Q01DX009 (ip), vehicle: saline): 157 % of control
T/C (dose: 1.25 mg/kg/injection, schedule: Q01DX009 (ip), vehicle: saline): 230 % of control
T/C (dose: 1.56 mg/kg/injection, schedule: Q01DX001 (ip), vehicle: saline): 109 % of control
T/C (dose: 3.12 mg/kg/injection, schedule: Q04DX003 (ip), vehicle: saline): 104 % of control
T/C (dose: 6.5 mg/kg/injection, schedule: Q01DX001 (ip), vehicle: saline): 163 % of control
T/C (dose: 6.5 mg/kg/injection, schedule: Q04DX003 (ip), vehicle: saline): 168 % of control

CS(=O)(=O)OCCn1c(=O)n(CCOS(C)(=O)=O)c(=O)n(CCOS(C)(=O)=O)c1=O
T/C (dose: 100.0 mg/kg/injection, schedule: Q01DX009 (ip), vehicle: saline sonified): 90 % of control
T/C [3]: 90 % of control
T/C (dose: 200.0 mg/kg/injection, schedule: Q01DX009 (ip), vehicle: saline sonified): 110 % of control
T/C [4]: 100 % of control
T/C (dose: 400.0 mg/kg/injection, schedule: Q01DX009 (ip), vehicle: saline sonified): 90 % of control
T/C [5]: 100 % of control

COc1ccc(Oc2nc(=O)n3ccccc3n2)cc1
T/C [6]: 93 % of control
T/C [1]: 90 % of control
T/C [2]: 88 % of control

O=C(O)c1ccc([N+](=O)[O-])s1
T/C [6]: 90 % of control
T/C [1]: 95 % of control
T/C [3]: 110 % of control
T/C [4]: 100 % of control

CSc1nc2[nH]cnc(=S)c2[nH]1
T/C [7]: 104 % of control
T/C [8]: 104 % of control
T/C [9]: 100 % of control

CO[C@H]1C[C@H](O[C@H]2CC[C@]3(C=O)[C@H]4CC[C@]5(C)[C@@H](C6=CC(=O)OC6)CC[C@]5(O)[C@@H]4CC[C@]3(O)C2)O[C@H](C)[C@H]1O[C@@H]1O[C@H](CO[C@@H]2O[C@H](CO)[C@@H](O)[C@H](O)[C@H]2O)[C@@H](O)[C@H](O)[C@H]1O
T/C (dose: 0.5 mg/kg/injection, schedule: Q01DX010 (ip), vehicle: saline): 115 % of control
T/C (dose: 1.0 mg/kg/injection, schedule: Q01DX010 (ip), vehicle: saline): 110 % of control

CC(C)(C)c1cc([N+](=O)[O-])cc(C(C)(C)C)c1O
T/C [10]: 90 % of control and 100 % of control
T/C [11]: 100 % of control
T/C [12]: 96 % of control and 109 % of control
T/C [13]: 86 % of control and 88 % of control
T/C [14]: 95 % of control and 96 % of control
T/C (dose: 100.0 mg/kg/injection, schedule: Q04DX003 (ip), vehicle: Klucel (hydroxypropylcellulose) (HPC)): 86 % of control and 88 % of control
T/C [15]: 92 % of control

CC(C)(C)C(CO)CO
T/C [6]: 93 % of control
T/C [1]: 100 % of control
T/C [2]: 100 % of control

CCOC(=O)Nc1ccc(/C=C\c2ccnc3ccccc23)cc1
T/C [8]: 106 % of control
T/C [9]: 115 % of control
T/C [6]: 92 % of control and 94 % of control

O=C(NNc1ccccc1)OCc1ccccc1
T/C (dose: 12.5 mg/kg/injection, schedule: Q01DX009 (ip), vehicle: Klucel (hydroxypropylcellulose) (HPC)): 100 % of control
T/C [10]: 115 % of control
T/C [12]: 110 % of control
T/C (dose: 75.0 mg/kg/injection, schedule: Q04DX003 (ip), vehicle: Klucel (hydroxypropylcellulose) (HPC)): 95 % of control
T/C (dose: 150.0 mg/kg/injection, schedule: Q04DX003 (ip), vehicle: Klucel (hydroxypropylcellulose) (HPC)): 100 % of control
T/C (dose: 300.0 mg/kg/injection, schedule: Q04DX003 (ip), vehicle: Klucel (hydroxypropylcellulose) (HPC)): 90 % of control

O=c1[nH]ncc2[nH]cnc12
T/C [7]: 98 % of control
T/C [8]: 107 % of control
T/C [9]: 91 % of control
T/C [6]: 104 % of control

C1CCNCC1.O=C([CH-]C(=O)C(F)(F)F)c1cccs1.O=C([CH-]C(=O)C(F)(F)F)c1cccs1.O=C([CH-]C(=O)C(F)(F)F)c1cccs1.O=C([CH-]C(=O)C(F)(F)F)c1cccs1.[Eu+3]
T/C [16]: 122 % of control

O=C(Nc1nncs1)c1cccs1
T/C (dose: 50.0 mg/kg/injection, schedule: Q04DX002 (ip), vehicle: saline with Tween-80): 109 % of control
T/C (dose: 100.0 mg/kg/injection, schedule: Q04DX002 (ip), vehicle: saline with Tween-80): 93 % of control
T/C (dose: 600.0 mg/kg/injection, schedule: Q04DX002 (ip), vehicle: saline with Tween-80): 190 % of control

CCCCCCCCCCCCCC[N+]1([O-])CCCC1
T/C (dose: 12.5 mg/kg/injection, schedule: Q01DX009 (ip), vehicle: saline): 108 % of control
T/C (dose: 25.0 mg/kg/injection, schedule: Q01DX009 (ip), vehicle: saline): 100 % of control
T/C [17]: 95 % of control

Cc1cc2[nH]c(=O)c(=O)[nH]c2cc1C
T/C (dose: 10.0 mg/kg/injection, schedule: Q01DX009 (ip), vehicle: Klucel (hydroxypropylcellulose) (HPC)): 109 % of control
T/C (dose: 20.0 mg/kg/injection, schedule: Q01DX009 (ip), vehicle: Klucel (hydroxypropylcellulose) (HPC)): 109 % of control
T/C (dose: 40.0 mg/kg/injection, schedule: Q01DX009 (ip), vehicle: Klucel (hydroxypropylcellulose) (HPC)): 100 % of control
T/C (dose: 75.0 mg/kg/injection, schedule: Q01DX009 (ip), vehicle: Klucel (hydroxypropylcellulose) (HPC)): 86 % of control

O=C1NC(=O)C(Cc2ccccc2)(c2ccccc2)N1 (stereo not given)
T/C (dose: 75.0 mg/kg/injection, schedule: Q01DX009 (ip), vehicle: saline with Tween-80): 97 % of control
T/C (dose: 150.0 mg/kg/injection, schedule: Q01DX009 (ip), vehicle: saline with Tween-80): 100 % of control

OCCNCCN=Cc1ccccc1O
T/C (dose: 50.0 mg/kg/injection, schedule: Q01DX001 (ip), vehicle: saline sonified): 87 % of control
T/C (dose: 100.0 mg/kg/injection, schedule: Q01DX001 (ip), vehicle: saline sonified): 91 % of control
T/C (dose: 200.0 mg/kg/injection, schedule: Q01DX001 (ip), vehicle: saline sonified): 100 % of control

FC(F)(F)c1nc2nccnc2[nH]1
T/C [17]: 100 % of control
T/C [16]: 100 % of control
T/C (dose: 200.0 mg/kg/injection, schedule: Q01DX009 (ip), vehicle: saline): 108 % of control
T/C [15]: 88 % of control

O=C(NC12CC3CC(CC(C3)C1)C2)Oc1ccccc1
T/C [6]: 102 % of control
T/C [1]: 102 % of control
T/C [2]: 93 % of control

O=C(O)COc1ccccc1OCC(=O)O
T/C [12]: 109 % of control
T/C [14]: 100 % of control
T/C (dose: 200.0 mg/kg/injection, schedule: Q01DX009 (ip), vehicle: Klucel (hydroxypropylcellulose) (HPC)): 100 % of control

O=C(C(=O)c1ccc(Cl)cc1)c1ccc(Cl)cc1
T/C (dose: 12.5 mg/kg/injection, schedule: Q04DX003 (ip), vehicle: other): 100 % of control
T/C (dose: 25.0 mg/kg/injection, schedule: Q04DX003 (ip), vehicle: other): 86 % of control

CC(C(=O)c1ccc(Cl)cc1)C(O)(C(F)(F)F)C(F)(F)F (stereo not given)
T/C (dose: 100.0 mg/kg/injection, schedule: Q01DX001 (ip), vehicle: Klucel (hydroxypropylcellulose) (HPC)): 100 % of control
T/C (dose: 200.0 mg/kg/injection, schedule: Q01DX001 (ip), vehicle: Klucel (hydroxypropylcellulose) (HPC)): 113 % of control
T/C (dose: 400.0 mg/kg/injection, schedule: Q01DX001 (ip), vehicle: Klucel (hydroxypropylcellulose) (HPC)): 113 % of control

CC(=O)Nc1ccc(S(=O)(=O)N(CCO)c2ccccc2)cc1
T/C [8]: 104 % of control
T/C (dose: 12.5 mg/kg/injection, schedule: Q04DX003 (ip), vehicle: Klucel (hydroxypropylcellulose) (HPC)): 100 % of control
T/C [9]: 104 % of control
T/C [11]: 109 % of control
T/C [6]: 96 % of control
T/C [13]: 109 % of control
T/C [15]: 87 % of control
